pIC50: −log10 of the molar value.
Target: T1, Wee1 kinase domain (Homo sapiens, UniProt P30291)
T1 construct: Wee1 kinase domain was purchased from Carna (catalog #05-177); purchased Carna 05-177
Assay: Wee1 Kinase Biochemical Assay (ADP-Glo)
Settings: 1 nM Wee1 enzyme, 15 uM ATP, 4 hours at 25° C
Description: Wee1 Kinase Biochemical Assay Protocol
Wee1 kinase domain was purchased from Carna (catalog #05-177). Wee1 kinase activity was determined with Poly(Lys,Tyr 4:1) hydrobromide as a substrate (Sigma-Aldrich) and by measuring ADP production using the ADP-Glo Kinase Assay kit (Promega) following the manufacturer's instructions. The kinase reaction was performed using the following conditions:
Buffer: 40 mM Tris-HCl, 20 mM magnesium chloride, supplemented with 0.1 mg/mL bovine serum albumin and 2 mM DTT. The final reaction mix contained 1 nM Wee1 enzyme, 15 uM ATP, and 2 ng/mL Poly(Lys,Tyr 4:1) hydrobromide substrate. The reaction time was 4 hours at 25° C.
The ADP-Glo signal was measured using the Envision plate reader and the percentage inhibition of kinase activity calculated for each inhibitor tested. Percent inhibition of Wee1 kinase activity was calculated based on the following formula.
[formula] • SSample: the signal of compounds • SHigh Ctrl: the signal of high control (DMSO) • SLow Ctrl: the signal of low control (positive control Wee1 inhibitor at saturating concentration)

T1 sequence (P30291 299-569 limits assumed): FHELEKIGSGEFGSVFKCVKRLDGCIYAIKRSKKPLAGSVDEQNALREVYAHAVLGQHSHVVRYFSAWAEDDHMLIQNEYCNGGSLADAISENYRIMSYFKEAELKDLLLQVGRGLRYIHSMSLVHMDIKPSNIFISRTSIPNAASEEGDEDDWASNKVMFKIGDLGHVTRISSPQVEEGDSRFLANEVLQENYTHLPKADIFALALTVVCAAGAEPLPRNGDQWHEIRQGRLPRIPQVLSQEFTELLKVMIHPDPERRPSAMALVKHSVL

SMILES | pIC50
CC1(C)C[C@H]2N(c3cccc(N=S(C)(C)=O)n3)c3nc(Nc4cncc(C(F)F)c4)ncc3[C@@]2(C)CO1 (single isomer, unassigned) [Example 815] | > 8.00
CC(C)n1nc(N2c3nc(Nc4ccc(N5CCN(C)CC5)cc4)ncc3[C@@]3(C)COC(C)(C)C[C@@H]23)ccc1=O (single isomer, unassigned) [Example 829] | > 8.00

Same assay, conditions: Wee1 kinase domain, 15 uM ATP, ADP-Glo

SMILES | pIC50
C[C@H]1COC(=O)N1c1cccc(N2c3nc(Nc4ccc(O[C@H]5CCNC5)nc4)ncc3[C@]3(C)COC(C)(C)C[C@H]23)n1 (single isomer, unassigned) [Example 284] | 7.00 to 8.00
C[C@H]1COC(=O)N1c1cccc(N2c3nc(Nc4ccc(O[C@H]5CCN(C)C5)cc4)ncc3[C@]3(C)COC(C)(C)C[C@H]23)n1 (single isomer, unassigned) [Example 332] | 7.00 to 8.00
CNCc1cccc(N2c3nc(Nc4ccc(C5CCOCC5)nc4)ncc3[C@]3(C)COC(C)(C)C[C@H]23)n1 (single isomer, unassigned) [Example 55] | ≤ 6.00
Cc1cc(Nc2ncc3c(n2)N(c2cccc(N4C(=O)OC[C@@H]4C)n2)[C@H]2CC(C)(C)OC[C@@]32C)ccc1O[C@H]1CCNC1 (single isomer, unassigned) [Example 338] | 7.00 to 8.00
CN1CCC(n2ccc(Nc3ncc4c(n3)N(c3cccc(N=S(C)(C)=O)n3)[C@@H]3CC(C)(C)OC[C@]43C)n2)CC1 (single isomer, unassigned) [Example 229] | 7.00 to 8.00
CNC(=O)c1ccc(Nc2ncc3c(n2)N(c2cccc(N=S(C)(C)=O)n2)[C@H]2CC(C)(C)OC[C@@]32C)cc1 (single isomer, unassigned) [Example 116] | 6.00 to 7.00
Cc1cc(Nc2ncc3c(n2)N(c2cccc(N=S(C)(C)=O)n2)[C@H]2CC(C)(C)OC[C@@]32C)ccc1C1CCN(C)CC1 (single isomer, unassigned) [Example 103] | 7.00 to 8.00
CN1CCC(c2ccc(Nc3ncc4c(n3)N(c3cccc(N=S(C)(C)=O)n3)[C@H]3CC(C)(C)OC[C@@]43C)cn2)CC1 (single isomer, unassigned) [Example 139] | 6.00 to 7.00
CNCc1cccc(N2c3nc(Nc4ccc(C(C)(C)C)cc4)ncc3[C@]3(C)COC(C)(C)C[C@H]23)n1 (single isomer, unassigned) [Example 74] | 7.00 to 8.00
C[C@H]1COC(=O)N1c1cccc(N2c3nc(Nc4ccc(O[C@@H]5CCNC5)nc4)ncc3[C@]3(C)COC(C)(C)C[C@H]23)n1 (single isomer, unassigned) [Example 286] | 6.00 to 7.00
CC(=O)Nc1ncc2c(n1)N(c1cccc(N=S(C)(C)=O)n1)[C@@H]1CC(C)(C)OC[C@]21C (single isomer, unassigned) [Example 398] | 7.00 to 8.00
Cc1cc(Nc2ncc3c(n2)N(c2cccc(N4C(=O)OC[C@@H]4C)n2)[C@H]2CC(C)(C)OC[C@@]32C)ccc1O[C@@H]1CCN(C)C1 (single isomer, unassigned) [Example 346] | 7.00 to 8.00
Cc1cc(Nc2ncc3c(n2)N(c2cccc(N4C(=O)OC[C@@H]4C)n2)[C@H]2CC(C)(C)OC[C@@]32C)ccc1N1C[C@@H]2C[C@H]1CN2C (single isomer, unassigned) [Example 294] | 7.00 to 8.00

Same assay, conditions: class symbols; 1 nM Wee1 enzyme, 15 uM ATP, 4 hours at 25° C.

SMILES | pIC50
CNCc1cccc(N2c3nc(Nc4ccc(-n5ccnc5)c(F)c4)ncc3[C@]3(C)COC(C)(C)C[C@H]23)n1 (single isomer, unassigned) [Example 465] | 6.00 to 7.00
CN1CC(c2ccc(Nc3ncc4c(n3)N(c3cccc(N5CCCC5=O)n3)[C@H]3CC(C)(C)OC[C@@]43C)cc2)C1 [Example 697, 1-(6-((4bS,8aS)-4b,7,7-trimethyl-2-((4-(1-methylazetidin-3-yl)phenyl)amino)-4b,7,8,8a-tetrahydropyrano[3′,4′:4,5]pyrrolo[2,3-d]pyrimidin-9(5H)-yl)pyridin-2-yl)pyrrolidin-2-one] | 7.00 to 8.00
CNCc1cccc(N2c3nc(NC(=O)[C@H]4C[C@@H]4c4cccnc4)ncc3[C@@]3(C)COC(C)(C)C[C@@H]23)n1 [Example 769, (1S,2S)-2-(pyridin-3-yl)-N-((4bR,8aR)-4b,7,7-trimethyl-9-(6-((methylamino)methyl)pyridin-2-yl)-4b,5,7,8,8a,9-hexahydropyrano[3′,4′:4,5]pyrrolo[2,3-d]pyrimidin-2-yl)cyclopropane-1-carboxamide] | 6.00 to 7.00
CN1C[C@@H]2C[C@H]1CN2c1ccc(Nc2ncc3c(n2)N(c2cccc(C(C)(C)O)n2)[C@H]2CC(C)(C)OC[C@@]32C)cc1F (single isomer, unassigned) [Example 432] | 6.00 to 7.00
CC1(C)C[C@@H]2N(c3cccc(N4CCOC4=O)n3)c3nc(Nc4ccc([C@@H]5CNC[C@@H]5F)cc4)ncc3[C@]2(C)CO1 [Example 674, 3-(6-((4bS,8aS)-2-((4-((3R,4R)-4-fluoropyrrolidin-3-yl)phenyl)amino)-4b,7,7-trimethyl-4b,7,8,8a-tetrahydropyrano[3′,4′:4,5]pyrrolo[2,3-d]pyrimidin-9(5H)-yl)pyridin-2-yl)oxazolidin-2-one] | 7.00 to 8.00
CN1CC[C@H](n2ccc(Nc3ncc4c(n3)N(c3cccc(N=S(C)(C)=O)n3)[C@@H]3CC(C)(C)OC[C@]43C)cc2=O)C1 [Example 805, 4-(((4bR,8aR)-9-(6-((dimethyl(oxo)-16-sulfaneylidene)amino)pyridin-2-yl)-4b,7,7-trimethyl-4b,5,7,8,8a,9-hexahydropyrano[3′,4′:4,5]pyrrolo[2,3-d]pyrimidin-2-yl)amino)-1-((S)-1-methylpyrrolidin-3-yl)pyridin-2(1H)-one] | > 8.00
CC1(C)C[C@@H]2N(c3cccc(N4CCOC4=O)n3)c3nc(Nc4ccc(N5CCNCC5)cc4)ncc3[C@]2(C)CO1 (single isomer, unassigned) [Example 600] | 6.00 to 7.00
Cc1cc(Nc2ncc3c(n2)N(c2cccc(C(C)(C)O)n2)[C@H]2CC(C)(C)OC[C@@]32C)ccc1N1C[C@@H]2C[C@H]1CN2C (single isomer, unassigned) [Example 430] | 7.00 to 8.00
CN[C@H](C)c1cc(C)nc(N2c3nc(Nc4ccc(N5CCOCC5)cc4)ncc3[C@]3(C)COC(C)(C)C[C@H]23)c1 (single isomer, unassigned) [Example 558] | 6.00 to 7.00
CNCc1cccc(N2c3nc(Nc4cnnc(C)c4)ncc3[C@]3(C)COC(C)(C)C[C@H]23)n1 (single isomer, unassigned) [Example 477] | 6.00 to 7.00
CC1(C)C[C@@H]2N(c3cccc(N4CCCC4=O)n3)c3nc(Nc4ccc([C@@H]5CCNC5)cc4)ncc3[C@]2(C)CO1 [Example 633, 1-(6-((4bS,8aS)-4b,7,7-trimethyl-2-((4-((S)-pyrrolidin-3-yl)phenyl)amino)-4b,7,8,8a-tetrahydropyrano[3′,4′:4,5]pyrrolo[2,3-d]pyrimidin-9(5H)-yl)pyridin-2-yl)pyrrolidin-2-one] | 7.00 to 8.00
CN1C[C@H]2C[C@@H]1CN2c1ccc(Nc2ncc3c(n2)N(c2cccc(C(C)(C)O)n2)[C@H]2CC(C)(C)OC[C@@]32C)cc1F (single isomer, unassigned) [Example 428] | 6.00 to 7.00
Cn1ncc(Nc2ncc3c(n2)N(c2cccc(N=S(C)(C)=O)n2)[C@@H]2CC(C)(C)OC[C@]32C)n1 (single isomer, unassigned) [Example 515] | > 8.00
CN1CCN(c2ccc(Nc3ncc4c(n3)N(c3cccc(N5CCCC5=O)n3)[C@H]3CC(C)(C)OC[C@@]43C)cc2)CC1 (single isomer, unassigned) [Example 586] | 7.00 to 8.00
CC1(C)C[C@@H]2N(c3cccc([C@H]4CNCCO4)n3)c3nc(Nc4ccc(N5CCOCC5)cc4)ncc3[C@]2(C)CO1 [Example 738, (4bS,8aS)-4b,7,7-trimethyl-9-(6-((R)-morpholin-2-yl)pyridin-2-yl)-N-(4-morpholinophenyl)-4b,5,7,8,8a,9-hexahydropyrano[3′,4′:4,5]pyrrolo[2,3-d]pyrimidin-2-amine] | 7.00 to 8.00
CN1C[C@H]2C[C@@H]1CN2c1ccc(Nc2ncc3c(n2)N(c2cccc(C(C)(C)O)n2)[C@H]2CC(C)(C)OC[C@@]32C)cc1Cl (single isomer, unassigned) [Example 434] | 7.00 to 8.00
CC1(C)C[C@@H]2N(c3cccc(C4CCNCC4)n3)c3nc(Nc4ccc(N5CCOCC5)cc4)ncc3[C@]2(C)CO1 (single isomer, unassigned) [Example 532] | 6.00 to 7.00
C[C@H]1CN(c2cccc(N3c4nc(Nc5ccc(N6CCN(C)CC6)cc5)ncc4[C@]4(C)COC(C)(C)C[C@H]34)n2)C(=O)O1 (single isomer, unassigned) [Example 598] | 6.00 to 7.00
CNCc1cccc(N2c3nc(Nc4ccc(-c5cnn(C)c5)nc4)ncc3[C@]3(C)COC(C)(C)C[C@H]23)n1 (single isomer, unassigned) [Example 459] | 6.00 to 7.00
Cc1cc(Nc2ncc3c(n2)N(c2cccc(N4CCOC4=O)n2)[C@H]2CC(C)(C)OC[C@@]32C)ccc1N1C[C@@H]2C[C@H]1CN2C [Example 655, 3-(6-((4bS,8aS)-4b,7,7-trimethyl-2-((3-methyl-4-((1S,4S)-5-methyl-2,5-diazabicyclo[2.2.1]heptan-2-yl)phenyl)amino)-4b,7,8,8a-tetrahydropyrano[3′,4′:4,5]pyrrolo[2,3-d]pyrimidin-9(5H)-yl)pyridin-2-yl)oxazolidin-2-one] | 7.00 to 8.00
CC1(C)C[C@H]2N(c3cccc(N=S(C)(C)=O)n3)c3nc(Nc4ccc(N5CCN6CCC5C6)cc4)ncc3[C@@]2(C)CO1 (single isomer, unassigned) [Example 511] | > 8.00
